Measured values reported in the NIST ThermoML archive (doi:10.1021/je5010824).

Assays:
[1] = Liquid; for mass density: 298.15 K, 101.33 kPa, Vibrating tube method; for vapor or sublimation pressure: Ebulliometric method (Recirculating still)
[2] = refractive index (Na D-line) (dimensionless); conditions: 298.15 K; 101.33 kPa; Liquid; Standard Abbe refractometry

CCC(O)CO (centres undefined) [1,2-butanediol]
Conditions | mass density [kg/m3] | refractive index
[1] | 998.78 | –
[2] | – | 1.4378

[1]
Conditions | vapor or sublimation pressure [kPa]
392.06 K | 5.62
397.24 K | 7.21
402.31 K | 8.86
405.41 K | 10
406.54 K | 10.62
412.23 K | 13.56
417.66 K | 16.89
422.15 K | 20
422.48 K | 20.34
427.21 K | 24.45
432.29 K | 29.56
437.41 K | 35.54
440.83 K | 40
442.77 K | 41.92
447.52 K | 50.54
452.13 K | 58.86
457.24 K | 69.36
462.57 K | 81.92
466.64 K | 92.78
469.71 K | 101.3

OCCO [1,2-ethanediol]
[1]
Conditions | vapor or sublimation pressure [kPa]
406.1 K | 10
423.29 K | 20
442.17 K | 40
470.4 K | 101.3

Conditions | refractive index
[2] | 1.431

CC(O)CO (centres undefined) [1,2-propanediol]
Conditions | mass density [kg/m3] | refractive index
[1] | 1031.9 | –
[2] | – | 1.432

[1]
Conditions | vapor or sublimation pressure [kPa]
398.25 K | 10
398.26 K | 10
414.88 K | 20
433.22 K | 40
460.69 K | 101.3
